Measured values: patent US20250059174A1, “Pharmaceutical Compounds and Compositions as C-Kit Kinase Inhibitors” (Enanta Pharmaceuticals, Inc., priority 2023, published 2025)

What follows are compounds tested against Recombinant human c-KIT kinase (Homo sapiens (Human), UniProt P10721) (assay: c-KIT kinase chemiluminescence assay (ADP-Glo)). Details: ATP 50 μM.
Chain of Recombinant human c-KIT kinase (P10721 26-976): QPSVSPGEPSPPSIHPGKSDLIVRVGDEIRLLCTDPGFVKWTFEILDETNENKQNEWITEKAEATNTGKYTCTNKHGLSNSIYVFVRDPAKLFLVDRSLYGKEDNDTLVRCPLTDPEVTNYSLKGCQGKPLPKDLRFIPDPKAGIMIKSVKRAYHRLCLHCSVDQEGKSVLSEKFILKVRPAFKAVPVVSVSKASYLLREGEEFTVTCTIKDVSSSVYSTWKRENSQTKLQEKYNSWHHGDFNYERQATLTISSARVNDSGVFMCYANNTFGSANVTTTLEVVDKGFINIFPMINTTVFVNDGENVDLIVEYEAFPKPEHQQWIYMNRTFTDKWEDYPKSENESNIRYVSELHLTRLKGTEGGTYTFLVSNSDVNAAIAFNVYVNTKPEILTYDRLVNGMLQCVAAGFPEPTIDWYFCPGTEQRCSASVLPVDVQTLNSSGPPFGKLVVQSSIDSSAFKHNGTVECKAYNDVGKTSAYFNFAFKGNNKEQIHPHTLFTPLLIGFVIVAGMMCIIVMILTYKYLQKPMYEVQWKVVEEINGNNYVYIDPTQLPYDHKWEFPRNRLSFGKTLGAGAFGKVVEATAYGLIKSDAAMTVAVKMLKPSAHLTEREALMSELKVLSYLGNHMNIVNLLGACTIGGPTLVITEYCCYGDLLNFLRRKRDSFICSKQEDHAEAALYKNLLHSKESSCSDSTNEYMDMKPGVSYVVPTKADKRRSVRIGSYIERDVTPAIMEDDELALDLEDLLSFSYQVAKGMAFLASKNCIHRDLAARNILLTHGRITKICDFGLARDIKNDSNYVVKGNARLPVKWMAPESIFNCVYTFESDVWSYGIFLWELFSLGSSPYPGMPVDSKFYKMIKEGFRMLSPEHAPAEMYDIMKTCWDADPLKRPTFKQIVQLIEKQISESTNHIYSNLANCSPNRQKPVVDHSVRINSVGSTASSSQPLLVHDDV
Assay type: biochemical
Description: The c-KIT Kinase Enzyme System (V4498) and ADP-Glo™ Kinase Assay kit (V6930) were purchased from Promega (Madison, WI). DMSO (D2650) was purchased from Sigma-Aldrich (Burlington, MA).
Kinase Reaction: The kinase assay was based on the recommended protocol by c-KIT Kinase Enzyme System from Promega. Recombinant human c-KIT kinase in 3 μL of assay buffer (40 mM Tris pH 7.5, 20 mM MgCl2, 0.1 mg/mL BSA and 50 μM DTT) was added to the test or high control wells and 3 μL of assay buffer was added to the low control wells. The microplate was centrifuged at 800 rotations per minute (rpm) for 60 s and incubated at room temperature (RT) for 30 min. Next, 2 μL of buffered ATP and polyEY substrate solution was added to all wells. The microplate was centrifuged at 800 rpm for 60 s and incubated at RT for 2 h.
ADP detection with ADP-Glo™ Kinase Assay: After the kinase reaction incubation, 5 μL of ADP-Glo™ reagent was added to all wells. The microplate was centrifuged at 800 rpm for 60 s and incubated at RT for 40 min. Ten microliter (10 μL) of Kinase Detection Reagent (Luciferin-Luciferase system) was then added to all wells. The microplate was centrifuged at 800 rpm for 60 s and incubated at RT for 60 min. Kinase activity was measured as increase in luminescence at RT in an Envision plate reader equipped with 560 nm filters and operating in endpoint mode. Data Analysis: Endpoint chemiluminescence from high and low control wells were used to calculate normalized c-KIT activity at various concentrations of test compounds. The normalized activities were fitted to inhibitor-versus-normalized response fit in GraphPad Prism 7 to determine half-maximal inhibitory concentration (IC50) and hill coefficient values (H).
Where I is the inhibitor concentration and H is the Hill coefficient.
For `Cc1ccc(-c2noc([C@H]3C[C@@H]3F)n2)cc1NC(=O)c1cnc2cnccn12` [Example 1], the IC50 was 0.1 to 1 µM. In the case of `Cc1ccc(-c2noc([C@H]3C[C@@H]3F)n2)cc1NC(=O)c1ccnc2cnccc12` [Example 8], the IC50 is reported as > 1 µM. With `Cc1ccc(-c2noc([C@H]3C[C@@H]3F)n2)cc1NC(=O)c1cnn2c1CCCC2` [Example 9] the IC50 was > 1 µM. For `Cc1ccc(-c2noc([C@H]3C[C@@H]3F)n2)cc1NC(=O)c1cnc2n1CCCC2` [Example 10], the IC50 was 0.1 to 1 µM. In the case of `Cc1ccc(-c2noc([C@H]3C[C@@H]3F)n2)cc1NC(=O)c1cnn(C)c1C` [Example 11], the IC50 is reported as > 1 µM. For `Cc1ccc(-c2noc([C@H]3C[C@@H]3F)n2)cc1NC(=O)c1ccnc2ncccc12` [Example 12], the IC50 was > 1 µM. With `Cc1ccc(-c2noc([C@H]3C[C@@H]3F)n2)cc1NC(=O)c1cncn1-c1ccccc1` [Example 17] the IC50 was > 1 µM. In the case of `Cc1ccc(-c2noc([C@H]3C[C@@H]3F)n2)cc1NC(=O)c1cnn2ncccc12` [Example 18], the IC50 is reported as > 1 µM. In the case of `Cc1ccc(-c2noc([C@H]3C[C@@H]3F)n2)cc1NC(=O)c1csc2cncnc12` [Example 19], the IC50 is reported as > 1 µM. For `Cc1ccc(-c2noc([C@H]3C[C@@H]3F)n2)cc1NC(=O)c1nnc2ccccn12` [Example 20], the IC50 was > 1 µM. With `Cc1ccc(-c2noc([C@H]3C[C@@H]3F)n2)cc1NC(=O)c1nnn2ccccc12` [Example 21] the IC50 was > 1 µM. `Cc1ccc(-c2noc([C@H]3C[C@@H]3F)n2)cc1NC(=O)c1cn(-c2ccccc2)nn1` [Example 22] was tested, and the IC50 was > 1 µM. Work on `Cc1ccc(-c2noc([C@H]3C[C@@H]3F)n2)cc1NC(=O)c1cnc(-c2ccccc2F)s1` [Example 24] yielded an IC50 of 0.1 to 1 µM. With `Cc1ccc(-c2noc([C@H]3C[C@@H]3F)n2)cc1NC(=O)c1cnc2ncccn12` [Example 25] the IC50 was > 1 µM. `Cc1ccc(-c2noc([C@H]3C[C@@H]3F)n2)cc1NC(=O)c1ccnc2ccnn12` [Example 26] was tested, and the IC50 was > 1 µM. For `Cc1ccc(-c2noc([C@H]3C[C@@H]3F)n2)cc1NC(=O)c1cnc2ncccc2c1` [Example 28], the IC50 was > 1 µM. For `Cc1ccc(-c2noc([C@H]3C[C@@H]3F)n2)cc1NC(=O)c1cnc2sccc2c1` [Example 29], the IC50 was > 1 µM. With `Cc1ccc(-c2noc([C@H]3C[C@@H]3F)n2)cc1NC(=O)c1cnc2[nH]ncc2c1` [Example 31] the IC50 was > 1 µM. With `Cc1ccc(-c2noc([C@H]3C[C@@H]3F)n2)cc1NC(=O)c1cnc2c(cnn2C(=O)C(C)C)c1` [Example 32] the IC50 was > 1 µM. `Cc1ccc(-c2noc([C@H]3C[C@@H]3F)n2)cc1NC(=O)c1cnc2[nH]ccc2c1` [Example 33] was tested, and the IC50 was > 1 µM. In the case of `Cc1ccc(-c2noc([C@H]3C[C@@H]3F)n2)cc1NC(=O)c1cnc2cccn2c1` [Example 45], the IC50 is reported as > 1 µM. In the case of `Cc1ccc(-c2noc([C@H]3C[C@@H]3F)n2)cc1NC(=O)c1cnc2nccn2c1` [Example 46], the IC50 is reported as > 1 µM. With `Cc1ccc(-c2noc([C@H]3C[C@@H]3F)n2)cc1NC(=O)c1cnc2ccnn2c1` [Example 47] the IC50 was > 1 µM. For `Cc1ccc(-c2noc([C@H]3C[C@@H]3F)n2)cc1NC(=O)c1cnc2cn[nH]c2c1` [Example 48], the IC50 was > 1 µM. With `Cc1ccc(-c2noc([C@H]3C[C@@H]3F)n2)cc1NC(=O)c1cnc2cnn(C(=O)C(C)C)c2c1` [Example 49] the IC50 was > 1 µM. For `Cc1ccc(-c2noc([C@H]3C[C@@H]3F)n2)cc1NC(=O)c1cnc2ncsc2c1` [Example 50], the IC50 was > 1 µM. With `Cc1ccc(-c2noc([C@H]3C[C@@H]3F)n2)cc1NC(=O)c1cnn(-c2ccc(Cl)cc2)c1` [Example 51] the IC50 was > 1 µM. `Cc1ccc(-c2noc([C@H]3C[C@@H]3F)n2)cc1NC(=O)c1cn(-c2ccccc2)nc1C` [Example 53] was tested, and the IC50 was > 1 µM. With `Cc1ccc(-c2noc([C@H]3C[C@@H]3F)n2)cc1NC(=O)c1cnc2cnccc2c1` [Example 63] the IC50 was > 1 µM. With `Cc1ccc(-c2noc([C@H]3C[C@@H]3F)n2)cc1NC(=O)c1cnc2ccncc2c1` [Example 64] the IC50 was > 1 µM. With `Cc1ccc(-c2noc([C@H]3C[C@@H]3F)n2)cc1NC(=O)c1cnc2ccccc2n1` [Example 65] the IC50 was > 1 µM. For `Cc1ccc(-c2noc([C@H]3C[C@@H]3F)n2)cc1NC(=O)c1cnc2[nH]cnc2c1` [Example 66], the IC50 was > 1 µM. `Cc1ccc(-c2noc([C@H]3C[C@@H]3F)n2)cc1NC(=O)c1cnc2c(c1)ncn2C(=O)C(C)C` [Example 67] was tested, and the IC50 was > 1 µM. `Cc1ccc(-c2noc([C@H]3C[C@@H]3F)n2)cc1NC(=O)c1cn2ccsc2n1` [Example 68] was tested, and the IC50 was > 1 µM. `Cc1ccc(-c2noc([C@H]3C[C@@H]3F)n2)cc1NC(=O)c1cnn(-c2ccccn2)c1` [Example 75] gave an IC50 of 0.1 to 1 µM. For `Cc1ccc(-c2noc([C@H]3C[C@@H]3F)n2)cc1NC(=O)c1cnn(-c2ccccc2Cl)c1` [Example 76], the IC50 was > 1 µM. In the case of `Cc1ccc(-c2noc([C@H]3C[C@@H]3F)n2)cc1NC(=O)c1cnc(-c2ccccc2)[nH]1` [Example 77], the IC50 is reported as > 1 µM. `COc1ccccc1-c1ncc(C(=O)Nc2cc(-c3noc([C@H]4C[C@@H]4F)n3)ccc2C)[nH]1` [Example 78] was tested, and the IC50 was > 1 µM. Compound `Cc1ccc(-c2noc([C@H]3C[C@@H]3F)n2)cc1NC(=O)c1cn[nH]c1-c1ccccc1` [Example 79] has an IC50 of 0.1 to 1 µM. In the case of `COc1cccc(-n2cc(C(=O)Nc3cc(-c4noc([C@H]5C[C@@H]5F)n4)ccc3C)cn2)c1` [Example 80], the IC50 is reported as 0.1 to 1 µM. For `Cc1ccc(-c2noc([C@H]3C[C@@H]3F)n2)cc1NC(=O)c1cnn(-c2cccc(Cl)c2)c1` [Example 81], the IC50 was > 1 µM. In the case of `Cc1ccc(-c2noc([C@H]3C[C@@H]3F)n2)cc1NC(=O)c1cnn(-c2cccc(Br)c2)c1` [Example 82], the IC50 is reported as > 1 µM. For `Cc1ccc(-c2noc([C@H]3C[C@@H]3F)n2)cc1NC(=O)c1cnn(-c2ccccc2)n1` [Example 83], the IC50 was > 1 µM. `Cc1ccc(-c2noc([C@H]3C[C@@H]3F)n2)cc1NC(=O)c1cnc(-c2ccccc2)s1` [Example 84] showed an IC50 of 0.1 to 1 µM. For `Cc1ccc(-c2noc([C@H]3C[C@@H]3F)n2)cc1NC(=O)n1c(=O)[nH]c2ccccc21` [Example 86], the IC50 was > 1 µM. `Cc1ccc(-c2noc([C@H]3C[C@@H]3F)n2)cc1NC(=O)c1cnn(-c2cccc(NC(=O)OC(C)(C)C)c2)c1` [Example 87] was tested, and the IC50 was > 1 µM. `Cc1ccc(-c2noc([C@H]3C[C@@H]3F)n2)cc1NC(=O)c1cnn2c1ccc1ccccc12` [Example 88] gave an IC50 of 0.1 to 1 µM. For `Cc1ccc(-c2noc([C@H]3C[C@@H]3F)n2)cc1NC(=O)c1cnn2ccc(C(=O)N3CCCCC3)cc12` [Example 89], the IC50 was > 1 µM. `Cc1ccc(-c2noc([C@H]3C[C@@H]3F)n2)cc1NC(=O)c1cnn2ccc(C(=O)NC3CCCCC3)cc12` [Example 91] was tested, and the IC50 was 0.1 to 1 µM. Work on `Cc1ccc(-c2noc([C@H]3C[C@@H]3F)n2)cc1NC(=O)c1cnc2n1CCOc1ccccc1-2` [Example 101] yielded an IC50 of 0.1 to 1 µM. With `C#Cc1ccc2c(C(=O)Nc3cc(-c4noc([C@H]5C[C@@H]5F)n4)ccc3C)cnn2c1` [Example 106] the IC50 was < 0.1 µM. With `Cc1ccc(-c2noc([C@H]3C[C@@H]3F)n2)cc1NC(=O)c1cnn2cc(-c3cn(C(F)F)nn3)ccc12` [Example 107] the IC50 was < 0.1 µM. With `Cc1ccc(-c2noc([C@H]3C[C@@H]3F)n2)cc1NC(=O)c1cnn2cc(-c3cnn(C(F)F)c3)ccc12` [Example 133] the IC50 was < 0.1 µM. In the case of `Cc1ccc(-c2noc([C@H]3C[C@@H]3F)n2)cc1NC(=O)c1cnn2cc(-c3ccn(C(F)F)n3)ccc12` [Example 134], the IC50 is reported as < 0.1 µM. In the case of `Cc1ccc(-c2noc([C@H]3C[C@@H]3F)n2)cc1NC(=O)c1cnn2cc(-c3cnn(C4COC4)c3)ccc12` [Example 137], the IC50 is reported as < 0.1 µM. In the case of `Cc1ccc(-c2noc([C@H]3C[C@@H]3F)n2)cc1NC(=O)c1cnn2cc(-c3cnn(CCO)c3)ccc12` [Example 139], the IC50 is reported as < 0.1 µM. For `Cc1ccc(-c2noc([C@H]3C[C@@H]3F)n2)cc1NC(=O)c1cnn2cc(-c3cnn(C(C)(C)CO)c3)ccc12` [Example 141], the IC50 was < 0.1 µM. With `Cc1ccc(-c2noc([C@H]3C[C@@H]3F)n2)cc1NC(=O)c1cnn2cc(-c3cnn(CC(C)(C)O)c3)ccc12` [Example 143] the IC50 was < 0.1 µM. Compound `Cc1ccc(-c2noc([C@H]3C[C@@H]3F)n2)cc1NC(=O)c1cnn2cc(Cl)c(N3CC4(COC4)C3)cc12` [Example 229] has an IC50 of 0.1 to 1 µM. With `Cc1ccc(-c2noc([C@H]3C[C@@H](OC(F)F)C3)n2)cc1NC(=O)c1cnn2ccc(N3CC4(COC4)C3)cc12` [Example 242] the IC50 was < 0.1 µM. For `Cc1ccc(-c2noc([C@H]3C[C@@H]3F)n2)cc1NC(=O)c1cnc(-c2ccc3c(cnn3CC(C)(C)O)c2)o1` [Example 308-65], the IC50 was < 0.1 µM. With `Cc1ccc(-c2noc([C@H]3C[C@@H]3F)n2)cc1NC(=O)c1cnc(-c2ccc3nn(CC(C)(C)O)cc3c2)o1` [Example 308-66] the IC50 was < 0.1 µM. `Cc1ncc(-c2nnn(C3CN(C(=O)C4CC4)C3)n2)cc1NC(=O)c1cnn2ccc(N3CC4(C3)CC(O)(C(F)F)C4)cc12` [Example 312-10] gave an IC50 of 0.1 to 1 µM. With `O=C(Nc1cn(-c2ccc(C3CC3)cc2)nc1C(F)F)c1cnn2ccc(N3CC4(COC4)C3)cc12` [compound 373] the IC50 was > 1 µM.
